# Experimental data taken from article PMC6609467 (ChemMedChem, 2019).
# Legend:
# [1] = molecular target: T1, NDM-1 (Klebsiella pneumoniae, UniProt C7C422); experiment: Inhibition of NDM-1 catalyzed meropenem hydrolysis; assay type: biochemical
# [2] = molecular target: VIM-2 (Escherichia coli, UniProt Q5U7L7); experiment: Inhibition of VIM-2 catalyzed Fluorocillin hydrolysis; assay type: biochemical
# [3] = molecular target: T1, NDM-1; experiment: Inhibition of NDM-1 catalyzed Fluorocillin hydrolysis; assay type: biochemical
# [4] = molecular target: IMP-1 (Serratia marcescens, UniProt P52699); experiment: Inhibition of IMP-1 catalyzed Fluorocillin hydrolysis; assay type: biochemical
# [5] = molecular target: ZnZn-NDM-1 (Klebsiella pneumoniae, UniProt C7C422); experiment: Equilibrium dialysis, Zn; assay type: binding; conditions: for Zn(II) removal from NDM-1 in equilibrium dialysis: NDM-1 8 μM, compound 16 - 128 μM; for Zn(II) removal from NDM-1 at 32 μM compound: Figure S2; for Zn(II) retained by NDM-1 at highest tested concentration: 128 μM compound; for Inhibition mechanism against NDM-1: from equilibrium dialysis and UV-vis of CoCo-NDM-1
# [6] = molecular target: T1, NDM-1; conditions: meropenem as substrate of NDM-1
# [7] = molecular target: T1, NDM-1; conditions: read-out: KM, NDM-1; Fluorocillin as substrate; ref [28], [43]; cited from earlier work
# T1 sequence (C7C422 29-270 limits assumed): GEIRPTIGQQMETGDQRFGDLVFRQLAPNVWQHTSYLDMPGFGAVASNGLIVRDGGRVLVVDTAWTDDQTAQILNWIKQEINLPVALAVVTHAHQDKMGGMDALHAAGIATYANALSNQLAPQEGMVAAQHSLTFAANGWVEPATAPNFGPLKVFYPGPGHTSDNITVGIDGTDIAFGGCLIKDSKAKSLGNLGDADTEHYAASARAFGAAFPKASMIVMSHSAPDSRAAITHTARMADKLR
# Sequence of ZnZn-NDM-1 (C7C422 29-270, looked up): as the sequence (C7C422 29-270 limits assumed) above
# Sequence of IMP-1 (P52699 19-246, species assumed): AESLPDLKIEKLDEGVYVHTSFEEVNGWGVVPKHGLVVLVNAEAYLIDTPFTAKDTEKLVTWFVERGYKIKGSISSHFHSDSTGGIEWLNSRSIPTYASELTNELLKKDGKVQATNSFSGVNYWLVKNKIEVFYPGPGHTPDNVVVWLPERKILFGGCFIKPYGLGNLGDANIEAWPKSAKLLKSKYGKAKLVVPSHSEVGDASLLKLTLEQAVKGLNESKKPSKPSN
molecule,measurement,setting,value
"COc1cccc(-c2cc(CP(=O)(O)O)nc(C(=O)O)c2)c1 [Compound 18c, 4-(3-Methoxyphenyl)-6-(phosphonomethyl)picolinic acid]",IC50,[1],420 ± 20 nM
"O=C(O)c1cccc(P(=O)(O)O)n1 [Compound 1, 6-Phosphonopicolinic acid]",IC50,[2],850 ± 20 nM
same,IC50,[3],64 ± 1 nM
same,IC50,[4],850 ± 60 nM
"O=C(O)c1cc(-c2ccccc2O)cc(CP(=O)(O)O)n1 [Compound 18g, 4-(2-Hydroxyphenyl)-6-(phosphonomethyl)picolinic acid]",IC50,[1],280 ± 10 nM
"O=C(O)c1cccc(C(=O)O)n1 [DPA, dipicolinic acid, reference compound]",Zn(II) removal from NDM-1 in equilibrium dialysis,[5],significantly reduced
same,IC50,[2],2340 ± 40 nM
same,IC50,[3],330 ± 40 nM
"Nc1cccc(-c2cc(CP(=O)(O)O)nc(C(=O)O)c2)c1 [Compound 18i, 4-(3-Aminophenyl)-6-(phosphonomethyl)picolinic acid]",Zn(II) removal from NDM-1 at 32 μM compound,[5],only slight Zn(II) removal
same,Zn(II) retained by NDM-1 at highest tested concentration,[5],one equivalent of Zn(II) was retained
same,Zn(II) removal from NDM-1 in equilibrium dialysis,[5],reduced tendency to remove Zn(II)
same,IC50,[1],400 ± 20 nM
"C[C@@H](O)[C@H]1C(=O)N2C(C(=O)O)=C(S[C@@H]3CN[C@H](C(=O)N(C)C)C3)[C@H](C)[C@H]12 [Meropenem, meropenem]",kcat,[6],15.3 ± 0.4 s⁻¹
"O=C(O)Cc1cccc(C(=O)O)n1 [Compound 3, 6-(Carboxymethyl)picolinic acid]",Zn(II) removal from NDM-1 in equilibrium dialysis,[5],removing only small amounts of Zn(II)
same,IC50,[2],35000 ± 1000 nM
same,IC50,[1],7700 ± 600 nM
same,IC50,[3],2050 ± 90 nM
same,IC50,[4],59000 ± 5000 nM
"O=C(O)c1cc(-c2cccc(O)c2)cc(CP(=O)(O)O)n1 [Compound 18f, 4-(3-Hydroxyphenyl)-6-(phosphonomethyl)picolinic acid]",IC50,[1],280 ± 10 nM
"O=C(O)c1cc(-c2ccc(O)cc2)cc(CP(=O)(O)O)n1 [Compound 18e, 4-(4-Hydroxyphenyl)-6-(phosphonomethyl)picolinic acid]",IC50,[1],480 ± 10 nM
"O=C(O)c1cccc(-c2nnn[nH]2)n1 [Compound 4, 6-(1H-Tetrazol-5-yl)picolinic acid]",Zn(II) removal from NDM-1 in equilibrium dialysis,[5],removing only small amounts of Zn(II)
same,Inhibition mechanism against NDM-1,[5],mainly via formation of a ternary complex
same,IC50,[2],27000 ± 2000 nM
same,IC50,[1],7000 ± 500 nM
same,Ki,[1],2200 ± 500 nM
same,IC50,[3],2190 ± 130 nM
same,IC50,[4],22000 ± 1000 nM
"O=C(O)c1cccc(-c2nccs2)n1 [Compound 9, 6-(Thiazol-2-yl)picolinic acid]",IC50,[1],> 10000 nM
"Nc1ccc(-c2cc(CP(=O)(O)O)nc(C(=O)O)c2)cc1 [Compound 18h, 4-(4-Aminophenyl)-6-(phosphonomethyl)picolinic acid]",IC50,[1],300 ± 10 nM
"O=C(O)c1cc(-c2ccccc2)cc(CP(=O)(O)O)n1 [Compound 18a, 4-Phenyl-6-(phosphonomethyl)picolinic acid]",IC50,[1],410 ± 20 nM
"O=C(O)c1cc(-c2cccc(Cl)c2)cc(CP(=O)(O)O)n1 [Compound 18l, 4-(3-Chlorophenyl)-6-(phosphonomethyl)picolinic acid]",IC50,[1],1290 ± 70 nM
"O=C(O)c1cccc(-c2ncco2)n1 [Compound 10, 6-(Oxazol-2-yl)picolinic acid]",IC50,[1],> 10000 nM
"C[C@H](CS)C(=O)N1CCC[C@H]1C(=O)O [L-captopril, reference compound]",Zn(II) removal from NDM-1 in equilibrium dialysis,[5],did not show any evidence of Zn(II) removal
"O=C(O)c1cccc(CS(=O)(=O)O)n1 [Compound 5, 6-(Sulfomethyl)picolinic acid]",IC50,[1],> 10000 nM
"CS(=O)(=O)Cc1cccc(C(=O)O)n1 [Compound 6, 6-((Methylsulfonyl)methyl)picolinic acid]",IC50,[1],> 10000 nM
"O=C(O)c1cccc(CP(=O)(O)O)n1 [Compound 2, 6-(Phosphonomethyl)picolinic acid]",Zn(II) retained by NDM-1 at highest tested concentration,[5],less than one equivalent was retained
same,Inhibition mechanism against NDM-1,[5],primarily via Zn(II) removal
same,IC50,[2],620 ± 10 nM
same,IC50,[3],68 ± 2 nM
same,IC50,[4],630 ± 10 nM
"Nc1ccccc1-c1cc(CP(=O)(O)O)nc(C(=O)O)c1 [Compound 18j, 4-(2-Aminophenyl)-6-(phosphonomethyl)picolinic acid]",IC50,[1],240 ± 10 nM
"COc1ccccc1-c1cc(CP(=O)(O)O)nc(C(=O)O)c1 [Compound 18d, 4-(2-Methoxyphenyl)-6-(phosphonomethyl)picolinic acid]",IC50,[1],300 ± 10 nM
"O=C(O)c1cc(-c2ccccc2Cl)cc(CP(=O)(O)O)n1 [Compound 18m, 4-(2-Chlorophenyl)-6-(phosphonomethyl)picolinic acid]",IC50,[1],950 ± 50 nM
"O=C(O)c1cc(-c2ccc(Cl)cc2)cc(CP(=O)(O)O)n1 [Compound 18k, 4-(4-Chlorophenyl)-6-(phosphonomethyl)picolinic acid]",IC50,[1],400 ± 10 nM
"COc1ccc(-c2cc(CP(=O)(O)O)nc(C(=O)O)c2)cc1 [Compound 18b, 4-(4-Methoxyphenyl)-6-(phosphonomethyl)picolinic acid]",Zn(II) removal from NDM-1 at 32 μM compound,[5],only slight Zn(II) removal
same,Zn(II) retained by NDM-1 at highest tested concentration,[5],one equivalent of Zn(II) was retained
same,Zn(II) removal from NDM-1 in equilibrium dialysis,[5],reduced tendency to remove Zn(II)
same,IC50,[1],200 ± 10 nM
"CN(Cc1cccc(C(=O)O)n1)S(C)(=O)=O [Compound 8, 6-((N-Methylmethylsulfonamido)methyl)picolinic acid]",IC50,[1],> 10000 nM
Fluorocillin,Km,[7],0.46 µM
"CS(=O)(=O)Nc1cccc(C(=O)O)n1 [Compound 7, 6-(Methylsulfonamido)picolinic acid]",IC50,[1],> 10000 nM
